From patent US20040171824A1, “A Lac operator-repressor system” (priority 2001, published 2004)

Key:
[1] = system: tyrosinase expression in Tyr^lacO, LacI double transgenic mice; test: IPTG derepression of tyrosinase expression (pigmentation) in Tyr^lacO, LacI double transgenic mice; format: in vivo, mouse
Procedure: The lac operator-repressor system of the present invention was tested in mice using a regulatable version of a well-characterized visible marker gene, tyrosinase. Tyrosinase is the protein product of the albino (c) locus (Kwon et al., PNAS 84, 7473-7477 (1987)), and is the enzyme that catalyzes the first step in melanin biosynthesis. The target transgene consists of the wildtype murine tyrosinase cDNA under the control of the murine tyrosinase promoter modified to contain lac operator sequences (See FIG. 2). The major transcription start site in the tyrosinase promoter is 83 bp upstream of the start codon. To maintain the endogenous spacing of promoter elements in the critical region between the start of transcription and the start of translation, a PCR-based, site-directed mutagenesis was used to change 25 bp of the endogenous sequence to create a primary lac operator centered at 59 bp upstream of the start of translation. Additional operators were inserted 176 bp and 526 bp upstream of the primary operator (FIG. 2). Mice containing this modified Tyrosinase transgene resemble pigmented animals previously described (Methot et al., nucleic Acids Research, 23, 4551-4556 (1995)) that had been microinjected with an unregulatable version of the same transgene. Two lines of pigmented Tyrosinase transgenic mice were established containing the regulatable transgene. […]

[2] = Tolerability of IPTG in the drinking water of Tyr^lacO, LacI double-transgenic mice; format: in vivo, mouse
Procedure: Tyrosinase activity was derepressed by replacing the drinking water with a 10 mM solution of IPTG (changed every four days). To allow for the normal pattern of tyrosinase expression during development, the female was started on 10 mM IPTG at day 7 of pregnancy.

[3] = system: tyrosinase expression in Tyr^lacO, LacI double transgenic embryos and pups; test: Transplacental IPTG regulation and reversibility of pigmentation in embryonic and newborn double transgenic mice; format: in vivo, mouse
Description: To determine if lac elements could regulate pigmentation during embryogenesis and if IPTG could act transplacentally, the pigmentation in the developing retinal pigment epithelium of embryonic and newborn mice was investigated. At E9, tyrosinase activity in the embryonic eye of wild type mice begins to deposit pigment in the developing retinal pigment epithelium. At E12.5, the mouse RPE clearly is pigmented. Tyr^lacO (43) transgenic mice recapitulate this developmental event. A distinct band of pigmentation surrounding the central lens is seen in the Tyrosinase transgenic embryo that is not seen in the nontransgenic albino.
Finally, the reversibility of the system was tested by switching the Tyrosinase transgene on after it had been off, or off after it had been on, in the same animal. The phenotypes of eyes of newborn mice were compared to the phenotypes of embryonic eyes of mice of the same genotype. […] However, at E12.5, this double transgenic pup has the albino phenotype. […] Reversibility was also observed with regards to switching off the tyrosinase gene after it had intially been on. […] As expected, the eyes remain pigmented due to the low turnover of cells and melanosomes in the RPE.
For embryonic eyes, pregnant females were euthanized at E12.5, and the embryos removed. The head of each embryo was fixed in 2% paraformaldehyde in 0.1 M phosphate (pH 7.4), and the lower half was taken for genotyping. Tyrosinase activity was derepressed by replacing the drinking water with a 10 mM solution of IPTG (changed every four days). To allow for the normal pattern of tyrosinase expression during development, the female was started on 10 mM IPTG at day 7 of pregnancy.

[4] = system: mouse L-cells stably transfected with lacI expression vector; settings: MSV-CAT reporter with lac operators; cited from earlier work
[5] = cited from earlier work

## CC(C)S[C@@H]1O[C@H](CO)[C@H](O)[C@H](O)[C@H]1O [IPTG, isopropyl-β-D-thiogalactoside]
[1]; double transgenic animal, 10 mM IPTG in the drinking water
  tyrosinase expression / coat phenotype: derepressed tyrosinase expression
[1]; double transgenic mouse treated with IPTG, eye sections
  pigmentation in the retinal pigment epithelium (RPE): restoration of pigmentation in the RPE to levels indistinguishable from the nonrepressed state
[2]; 10 mM IPTG in drinking water for up to 8 months
  deleterious effects on long-term administration: no deleterious effects
[2]; IPTG in the drinking water
  toxicity of the circulating level that derepresses target gene expression: completely nontoxic
[3]; double-transgenic embryo at E12.5, mother on 10 mM IPTG in drinking water during pregnancy
  pigmentation of the embryonic RPE: not when the mother was treated with IPTG during pregnancy
[3]; mother given IPTG in drinking water
  placental transfer: can cross the placenta
[3]; mother started on IPTG at E12.5 of pregnancy
  switching tyrosinase expression on after a period of silencing (eye pigmentation at birth): able to switch tyrosinase expression on
[3]; pup's mother taken off IPTG at P9
  coat phenotype after removal of IPTG: reversion of the coat phenotype to albino
[4]
  CAT activity: marked de-repression of CAT activity
[5]; adult animal, spleen, liver, lung, kidney, brain, adipose tissue
  tissue distribution: widespread
[5]; average
  nuclear uptake of inducer, of the total cell uptake: 18%
[5]; in vivo
  clearance from the blood: rapidly cleared from the blood
  metabolism in the animal: not metabolized
  relative concentration of inducer to repressor molecules versus that required for maximal induction in E. coli: ~1000 fold
  time functionally active after introduction into the bloodstream: at least 4 hours
[5]; uptake by facilitated transport into tissues of the animal
  time to reach high levels in cells of tissues: 2 to 4 h
